According to patent US20200087625A1, “METHODS FOR ISOLATING, EXPANDING AND ADMINISTERING CANCER SPECIFIC CD8+ T CELLS” (priority 2017, published 2020):

Columns and labels:
[1] = Serum cytokine analysis (Luminex) after systemic administration; type: in vivo, BALB/c mice; conditions: mouse, in vivo
Experimental: FIG. 36. […] BALB/c mice (n=5) were i.p. administered IV270 (200 μg=185 nmol/injection) or […] (58 μg=185 nmol/injection) and sera were collected 2, 4, 6, and 24 hours following the administration. The levels of TNFα, IL-12, and IP-IO were measured by Luminex assay. *P<0.05, **P<0.01 by two way ANOVA using a Bonferroni post hoc test comparing treatment groups.
The sera were collected from mice receiving […] of 1V136, 1V270 or vehicle 2, 4, 6, and 24 hours after i.p. administration (15). Cytokine levels in sera were determined by Luminex bead assays (MILLIPLEX™ MAP kit, Millip ore, Billerica, Mass.).

metastatic lung tumors = conditions: intratracheal administration; cited from earlier work
dermatological tumors = conditions: cited from earlier work

With `COCCOc1nc(N)c2[nH]c(=O)n(Cc3ccccc3)c2n1` [1V136, reference compound] the systemic proinflammatory cytokines [1] was “high levels of systemic proinflammatory cytokines”.

For `CCCCNc1nc(N)c2[nH]c(=O)n(Cc3ccc(C)nc3)c2n1` [SM276001], the metastatic lung tumors (metastatic lung tumors) is listed as “suppress metastatic lung tumors”.

For `CC(C)Cn1cnc2c(N)nc3ccccc3c21` [imiquimod], the clinical efficacy (dermatological tumors; patients with basal cell carcinoma and actinic keratosis, topical) is listed as “favorable clinical efficacy” and the “toxicity on systemic administration” value (dermatological tumors; systemic administration) is listed as “immunotoxicity induced by systemic administration”.
